Assay: Spectroscopic measurements (absorption, emission, quantum yield, extinction coefficient)
Assay type: physicochemical
Settings: BDNCA library; for Abs: absorption; for Flu-Abs: difference emission minus absorption; for ε: extinction coefficient, in M-1 cm-1 (unit assumed); for Flu: fluorescence emission

For `CC1=CC(/C=C/c2ccc(O)cc2)=[N+]2C1=C(c1ccc(NC(=O)CCl)cc1)c1cccn1[B-]2(F)F` [BDNCA-153], the “Qunt. Yield” value was 0.05, the Abs was 569 nm and the Flu-Abs was 37. For the same molecule, the ε was 23,341 and the Flu was 606.

With `CC1=CC(/C=C/c2ccc(OCCCN(C)C)cc2)=[N+]2C1=C(c1ccc(NC(=O)CCl)cc1)c1cccn1[B-]2(F)F` [BDNCA-163] the “Qunt. Yield” value was 0.04, the Abs was 566 nm and the Flu-Abs was 29. For the same molecule, the ε was 24,165 and the Flu was 595.

For `CC1=CC(/C=C/c2ccc(C(C)(C)C)cc2)=[N+]2C1=C(c1ccc(NC(=O)CCl)cc1)c1cccn1[B-]2(F)F` [BDNCA-177], the “Qunt. Yield” value was 0.15, the Abs was 558 nm and the Flu-Abs was 23. For the same molecule, the ε was 73,867 and the Flu was 581.

With `COc1ccc(Oc2ccc(/C=C/c3cc(C)c4n3[B-](F)(F)[N+]3=CC=CC3=C4c3ccc(NC(=O)CCl)cc3)cc2)cc1` [BDNCA-178] the “Qunt. Yield” value was 0.09, the Abs was 563 nm and the Flu-Abs was 26. The ε was 61,785 and the Flu was 589.

For `COC(=O)c1ccc(-c2ccc(/C=C/C3=[N+]4C(=C(c5ccc(NC(=O)CCl)cc5)c5cccn5[B-]4(F)F)C(C)=C3)cc2)cc1` [BDNCA-179], the “Qunt. Yield” value was 0.14, the Abs was 566 nm and the Flu-Abs was 23. For the same molecule, the ε was 52,998 and the Flu was 589.

For `CC1=CC(/C=C/c2ccc(Cl)c(Cl)c2)=[N+]2C1=C(c1ccc(NC(=O)CCl)cc1)c1cccn1[B-]2(F)F` [BDNCA-182], the “Qunt. Yield” value was 0.08, the Abs was 557 nm and the Flu-Abs was 18. For the same molecule, the ε was 37,620 and the Flu was 575.

In the case of `CC1=CC(/C=C/c2c[nH]c3ccc(Br)cc23)=[N+]2C1=C(c1ccc(NC(=O)CCl)cc1)c1cccn1[B-]2(F)F` [BDNCA-185], the “Qunt. Yield” value is reported as 0.06, the Abs is reported as 581 nm and the Flu-Abs is reported as 65. For the same molecule, the ε was 29,931 and the Flu was 646.

For `COc1cccc(/C=C/C2=[N+]3C(=C(c4ccc(NC(=O)CCl)cc4)c4cccn4[B-]3(F)F)C(C)=C2)c1` [BDNCA-186], the “Qunt. Yield” value was 0.14, the Abs was 556 nm and the Flu-Abs was 20. For the same molecule, the ε was 61,510 and the Flu was 576.

In the case of `Cc1cc(/C=C/c2ccccc2C(=O)O)n2c1C(c1ccc(NC(=O)CCl)cc1)=C1C=CC=[N+]1[B-]2(F)F` [BDNCA-191], the “Qunt. Yield” value is reported as 0.06, the Abs is reported as 556 nm and the Flu-Abs is reported as 18. For the same molecule, the ε was 24,714 and the Flu was 574.

In the case of `COc1ccc(/C=C/c2cc(C)c3n2[B-](F)(F)[N+]2=CC=CC2=C3c2ccc(NC(=O)CCl)cc2)c(O)c1` [BDNCA-192], the “Qunt. Yield” value is reported as 0.03, the Abs is reported as 577 nm and the Flu-Abs is reported as 53. For the same molecule, the ε was 21,693 and the Flu was 630.

For `COc1ccc(-c2ccc(/C=C/C3=[N+]4C(=C(c5ccc(NC(=O)CCl)cc5)c5cccn5[B-]4(F)F)C(C)=C3)o2)cc1Cl` [BDNCA-195], the “Qunt. Yield” value was 0.01, the Abs was 605 nm and the ε was 21,968. For the same molecule, the Flu was 681.

For `COc1ccccc1/C=C/c1cc(C)c2n1[B-](F)(F)[N+]1=CC=CC1=C2c1ccc(NC(=O)CCl)cc1` [BDNCA-198], the “Qunt. Yield” value was 0.15, the Abs was 561 nm and the Flu-Abs was 26. For the same molecule, the ε was 76,064 and the Flu was 587.

With `CC1=CC(/C=C/c2ccc(-c3cncnc3)cc2)=[N+]2C1=C(c1ccc(NC(=O)CCl)cc1)c1cccn1[B-]2(F)F` [BDNCA-199] the “Qunt. Yield” value was 0.15, the Abs was 563 nm and the Flu-Abs was 20. The ε was 59,314 and the Flu was 583.

With `C=CCOc1ccccc1/C=C/C1=[N+]2C(=C(c3ccc(NC(=O)CCl)cc3)c3cccn3[B-]2(F)F)C(C)=C1` [BDNCA-202] the “Qunt. Yield” value was 0.13, the Abs was 561 nm and the Flu-Abs was 24. For the same molecule, the ε was 57,666 and the Flu was 585.

With `COc1ccc(/C=C/c2cc(C)c3n2[B-](F)(F)[N+]2=CC=CC2=C3c2ccc(NC(=O)CCl)cc2)c(OC)c1` [BDNCA-206] the “Qunt. Yield” value was 0.13, the Abs was 574 nm and the Flu-Abs was 44. For the same molecule, the ε was 44,485 and the Flu was 618.

With `Cc1ccc(/C=C/c2cc(C)c3n2[B-](F)(F)[N+]2=CC=CC2=C3c2ccc(NC(=O)CCl)cc2)cc1` [BDNCA-208] the “Qunt. Yield” value was 0.12, the Abs was 558 nm and the Flu-Abs was 23. The ε was 64,805 and the Flu was 581.

For `COc1cc(/C=C/C2=[N+]3C(=C(c4ccc(NC(=O)CCl)cc4)c4cccn4[B-]3(F)F)C(C)=C2)cc(OC)c1` [BDNCA-209], the “Qunt. Yield” value was 0.12, the Abs was 556 nm and the Flu-Abs was 20. The ε was 62,334 and the Flu was 576.

With `COC(=O)c1ccc(/C=C/C2=[N+]3C(=C(c4ccc(NC(=O)CCl)cc4)c4cccn4[B-]3(F)F)C(C)=C2)cc1` [BDNCA-219] the “Qunt. Yield” value was 0.16, the Abs was 560 nm and the Flu-Abs was 21. The ε was 73,043 and the Flu was 581.

For `COc1cc(Cl)c(/C=C/C2=[N+]3C(=C(c4ccc(NC(=O)CCl)cc4)c4cccn4[B-]3(F)F)C(C)=C2)c(Cl)c1O` [BDNCA-220], the “Qunt. Yield” value was 0.01, the Abs was 559 nm and the Flu-Abs was 24. For the same molecule, the ε was 40,915 and the Flu was 583.

With `COc1cc(/C=C/C2=[N+]3C(=C(c4ccc(NC(=O)CCl)cc4)c4cccn4[B-]3(F)F)C(C)=C2)c(OCc2ccccc2)cc1OC` [BDNCA-223] the “Qunt. Yield” value was “weak”, the Abs was 583 nm and the ε was 59,863. For the same molecule, the Flu was “weak”.

With `COc1cc(Br)cc(/C=C/C2=[N+]3C(=C(c4ccc(NC(=O)CCl)cc4)c4cccn4[B-]3(F)F)C(C)=C2)c1OC` [BDNCA-228] the “Qunt. Yield” value was 0.13, the Abs was 558 nm and the Flu-Abs was 19. For the same molecule, the ε was 63,707 and the Flu was 577.

For `CC1=CC(/C=C/c2cccc3c2OCO3)=[N+]2C1=C(c1ccc(NC(=O)CCl)cc1)c1cccn1[B-]2(F)F` [BDNCA-231], the “Qunt. Yield” value was 0.04, the Abs was 559 nm and the Flu-Abs was 19. For the same molecule, the ε was 33,227 and the Flu was 578.

With `Cc1ccc(/C=C/c2cc(C)c3n2[B-](F)(F)[N+]2=CC=CC2=C3c2ccc(NC(=O)CCl)cc2)s1` [BDNCA-236] the “Qunt. Yield” value was 0.11, the Abs was 577 nm and the Flu-Abs was 31. The ε was 72,220 and the Flu was 608.

For `CC1=CC(/C=C/c2ccc(I)cc2)=[N+]2C1=C(c1ccc(NC(=O)CCl)cc1)c1cccn1[B-]2(F)F` [BDNCA-237], the “Qunt. Yield” value was 0.13, the Abs was 560 nm and the Flu-Abs was 19. For the same molecule, the ε was 70,572 and the Flu was 579.

In the case of `Cc1cc(/C=C/c2ccc(CO)o2)n2c1C(c1ccc(NC(=O)CCl)cc1)=C1C=CC=[N+]1[B-]2(F)F` [BDNCA-238], the “Qunt. Yield” value is reported as 0.05, the Abs is reported as 575 nm and the Flu-Abs is reported as 33. For the same molecule, the ε was 40,366 and the Flu was 608.

For `Cc1cc(/C=C/c2ccccc2OC(F)F)n2c1C(c1ccc(NC(=O)CCl)cc1)=C1C=CC=[N+]1[B-]2(F)F` [BDNCA-240], the “Qunt. Yield” value was 0.08, the Abs was 554 nm and the Flu-Abs was 19. The ε was 47,506 and the Flu was 573.

In the case of `COc1c(Br)cc(Br)cc1/C=C/C1=[N+]2C(=C(c3ccc(NC(=O)CCl)cc3)c3cccn3[B-]2(F)F)C(C)=C1` [BDNCA-241], the “Qunt. Yield” value is reported as 0.09, the Abs is reported as 558 nm and the Flu-Abs is reported as 20. The ε was 48,879 and the Flu was 578.

In the case of `COc1cc(/C=C/C2=[N+]3C(=C(c4ccc(NC(=O)CCl)cc4)c4cccn4[B-]3(F)F)C(C)=C2)cc(I)c1OC` [BDNCA-242], the “Qunt. Yield” value is reported as 0.14, the Abs is reported as 561 nm and the Flu-Abs is reported as 25. For the same molecule, the ε was 70,847 and the Flu was 586.

For `CC1=CC(/C=C/c2c(Cl)ccc(C)c2F)=[N+]2C1=C(c1ccc(NC(=O)CCl)cc1)c1cccn1[B-]2(F)F` [BDNCA-246], the “Qunt. Yield” value was 0.09, the Abs was 554 nm and the Flu-Abs was 19. The ε was 43,387 and the Flu was 573.

In the case of `CC1=CC(/C=C/c2ccc(C)c(F)c2)=[N+]2C1=C(c1ccc(NC(=O)CCl)cc1)c1cccn1[B-]2(F)F` [BDNCA-249], the “Qunt. Yield” value is reported as 0.12, the Abs is reported as 556 nm and the Flu-Abs is reported as 21. For the same molecule, the ε was 71,945 and the Flu was 577.

In the case of `COc1ccc([N+](=O)[O-])cc1/C=C/C1=[N+]2C(=C(c3ccc(NC(=O)CCl)cc3)c3cccn3[B-]2(F)F)C(C)=C1` [BDNCA-250], the “Qunt. Yield” value is reported as 0.12, the Abs is reported as 559 nm and the Flu-Abs is reported as 22. The ε was 53,547 and the Flu was 581.

For `CCc1ccccc1/C=C/c1cc(C)c2n1[B-](F)(F)[N+]1=CC=CC1=C2c1ccc(NC(=O)CCl)cc1` [BDNCA-251], the “Qunt. Yield” value was 0.11, the Abs was 555 nm and the Flu-Abs was 23. The ε was 54,096 and the Flu was 578.

In the case of `CCc1ccc(/C=C/C2=[N+]3C(=C(c4ccc(NC(=O)CCl)cc4)c4cccn4[B-]3(F)F)C(C)=C2)cc1[N+](=O)[O-]` [BDNCA-252], the “Qunt. Yield” value is reported as 0.08, the Abs is reported as 556 nm and the Flu-Abs is reported as 20. The ε was 57,666 and the Flu was 576.

With `COc1cccc(F)c1/C=C/C1=[N+]2C(=C(c3ccc(NC(=O)CCl)cc3)c3cccn3[B-]2(F)F)C(C)=C1` [BDNCA-254] the “Qunt. Yield” value was 0.09, the Abs was 559 nm and the Flu-Abs was 22. The ε was 56,018 and the Flu was 581.

In the case of `Cc1ccc(/C=C/c2cc(C)c3n2[B-](F)(F)[N+]2=CC=CC2=C3c2ccc(NC(=O)CCl)cc2)cc1[N+](=O)[O-]` [BDNCA-255], the “Qunt. Yield” value is reported as 0.10, the Abs is reported as 556 nm and the Flu-Abs is reported as 19. The ε was 62,059 and the Flu was 575.

With `Cc1cc(/C=C/c2cccc(Br)c2O)n2c1C(c1ccc(NC(=O)CCl)cc1)=C1C=CC=[N+]1[B-]2(F)F` [BDNCA-256] the “Qunt. Yield” value was 0.04, the Abs was 561 nm and the Flu-Abs was 21. For the same molecule, the ε was 52,449 and the Flu was 582.

For `COc1cc(/C=C/C2=[N+]3C(=C(c4ccc(NC(=O)CCl)cc4)c4cccn4[B-]3(F)F)C(C)=C2)cc(Br)c1OC` [BDNCA-259], the “Qunt. Yield” value was 0.11, the Abs was 561 nm and the Flu-Abs was 21. The ε was 49,428 and the Flu was 582.

Reference: US9423396B2, “Bodipy structure fluorescence probes for diverse biological applications” (National University of Singapore, priority 2011, dated 2016)
